Measured values taken from patent publication US20260159539.
Read-outs that look alike come from different tables or passages of the source.

Compound: CCn1c(-c2cc(N3CCN(C(=O)OCc4ccccc4)CC3)cnc2[C@H](C)OC)c2c3cc(ccc31)-c1cc(cc(O[Si](C(C)C)(C(C)C)C(C)C)c1)C[C@H](NC(=O)OC(C)(C)C)C(=O)N1CCC[C@H](N1)C(=O)OCC(C)(C)C2
- ring closure, isolated yield (from CCn1c(-c2cc(N3CCN(C(=O)OCc4ccccc4)CC3)cnc2[C@H](C)OC)c(CC(C)(C)CO)c2cc(-c3cc(C[C@H](NC(=O)OC(C)(C)C)C(=O)N4CCC[C@@H](C(=O)O)N4)cc(O[Si](C(C)C)(C(C)C)C(C)C)c3)ccc21, ester bond, 18-membered ring, EDCI/HOBt/DIEA, DCM, 9.3 mM, 25.0 °C, 16.0 h): 63%

Compound: CCn1c(-c2cc(N3CCN(C(=O)OCc4ccccc4)CC3)cnc2[C@H](C)OC)c2c3nc(ccc31)-c1cc(cc(O[Si](C(C)C)(C(C)C)C(C)C)c1)C[C@H](NC(=O)OC(C)(C)C)C(=O)N1CCC[C@H](N1)C(=O)OCC(C)(C)C2
- ring closure, isolated yield (from CCn1c(-c2cc(N3CCN(C(=O)OCc4ccccc4)CC3)cnc2[C@H](C)OC)c(CC(C)(C)CO)c2nc(-c3cc(C[C@H](NC(=O)OC(C)(C)C)C(=O)N4CCC[C@@H](C(=O)O)N4)cc(O[Si](C(C)C)(C(C)C)C(C)C)c3)ccc21, ester bond, 18-membered ring, EDCI/HOBt/DIEA, DCM, 32.0 mM, 25.0 °C, 16.0 h, 2 steps): 42%

Compound: CCOC(=O)[C@@H]1Cc2nc(Br)sc2C=C[C@@H]2[C@H](CCN2C(=O)OC(C)(C)C)C(=O)N(C)[C@@H](C(C)C)C(=O)N1
- ring closure, isolated yield (from C=Cc1sc(Br)nc1C[C@H](NC(=O)[C@H](C(C)C)N(C)C(=O)[C@H]1CCN(C(=O)OC(C)(C)C)[C@@H]1C=C)C(=O)OCC, rcm bond, 13-membered ring, Grubbs G2/Ti(OiPr)4, DCM, 28.3 mM, 45.0 °C, 16.0 h): 20%

Compound: CCn1c(-c2cc(N3CCN(C(=O)OCc4ccccc4)CC3)cnc2[C@H](C)OC)c2c3cc(ccc31)-c1cc(cc(O[Si](C(C)C)(C(C)C)C(C)C)c1)C[C@H](NC(=O)OC(C)(C)C)C(=O)N1CCC[C@H](N1)C(=O)OCC(F)(F)C2
- ring closure, isolated yield (from CCn1c(-c2cc(N3CCN(C(=O)OCc4ccccc4)CC3)cnc2[C@H](C)OC)c(CC(F)(F)CO)c2cc(-c3cc(C[C@H](NC(=O)OC(C)(C)C)C(=O)N4CCC[C@@H](C(=O)O)N4)cc(O[Si](C(C)C)(C(C)C)C(C)C)c3)ccc21, ester bond, 18-membered ring, EDCI/HOBt/DIEA, DCM, 32.0 mM, 25.0 °C, 16.0 h, 2 steps): 75%

Compound: CCOC(=O)[C@@H]1Cc2nc(Br)nn2/C=C/[C@@H]2[C@H](CCN2C(=O)OC(C)(C)C)C(=O)N(C)[C@@H](C(C)C)C(=O)N1
- ring closure, isolated yield (from C=C[C@@H]1[C@@H](C(=O)N(C)[C@H](C(=O)N[C@@H](Cc2nc(Br)nn2C=C)C(=O)OCC)C(C)C)CCN1C(=O)OC(C)(C)C, rcm bond, 13-membered ring, Grubbs G2/Ti(OiPr)4, DCM, 15.3 mM, 45.0 °C, 12.0 h): 27%

Compound: CCc1c(-c2cc(N3CCN(C(=O)OCc4ccccc4)CC3)cnc2[C@H](C)OC)n2c3cc(ccc13)-c1cc(cc(O[Si](C(C)C)(C(C)C)C(C)C)c1)C[C@H](NC(=O)OC(C)(C)C)C(=O)N1CCC[C@H](N1)C(=O)OCC(C)(C)C2
- ring closure, isolated yield (from CCc1c(-c2cc(N3CCN(C(=O)OCc4ccccc4)CC3)cnc2[C@H](C)OC)n(CC(C)(C)CO)c2cc(-c3cc(C[C@H](NC(=O)OC(C)(C)C)C(=O)N4CCC[C@@H](C(=O)O)N4)cc(O[Si](C(C)C)(C(C)C)C(C)C)c3)ccc12, ester bond, 18-membered ring, EDCI/HOBt/DIEA, DCM, 8.8 mM, 25.0 °C, 16.0 h, 2 steps): 48%

Compound: CCn1c(-c2cc(Oc3cccnc3)cnc2[C@H](C)OC)c2c3cc(ccc31)-c1cc(cc(O[Si](C(C)C)(C(C)C)C(C)C)c1)C[C@H](NC(=O)OC(C)(C)C)C(=O)N1CCC[C@H](N1)C(=O)OCC(C)(C)C2
- ring closure, isolated yield (from CCn1c(-c2cc(Oc3cccnc3)cnc2[C@H](C)OC)c(CC(C)(C)CO)c2cc(-c3cc(C[C@H](NC(=O)OC(C)(C)C)C(=O)N4CCC[C@@H](C(=O)O)N4)cc(O[Si](C(C)C)(C(C)C)C(C)C)c3)ccc21, ester bond, 18-membered ring, EDCI/HOBt/DIPEA, DCM, 9.9 mM, 25.0 °C, 12.0 h, 4 steps): 67%

Compound: CCn1c(-c2cc(N3CCN(C4CC4)CC3)cnc2[C@H](C)OC)c(CC(C)(C)CO)c2cc(-c3cc4cc(c3)C[C@@H](C(=O)OC)NC(=O)[C@H](C(C)C)N(C)C(=O)[C@H]3CCCN(C(C)=O)N3CC4)ccc21
- ring closure, isolated yield (from CCn1c(-c2cc(N3CCN(C4CC4)CC3)cnc2[C@H](C)OC)c(CC(C)(C)CO)c2cc(-c3cc(CCN4[C@@H](C(=O)O)CCCN4C(C)=O)cc(C[C@H](NC(=O)[C@@H](NC)C(C)C)C(=O)OC)c3)ccc21, amide bond, 14-membered ring, COMU/DIPEA, DMF, 54.0 mM, 25.0 °C, 1.0 h, 2 steps): 42%

Compound: COC(=O)[C@@H]1Cc2cc(Br)cc(c2)CC[C@@H]2[C@H](CCN2C(=O)OC(C)(C)C)C(=O)N(C)[C@@H](C(C)C)C(=O)N1
- ring closure, isolated yield (from COC(=O)[C@@H](N)Cc1cc(Br)cc(CC[C@@H]2[C@@H](C(=O)N(C)[C@H](C(=O)O)C(C)C)CCN2C(=O)OC(C)(C)C)c1, amide bond, 14-membered ring, HATU/DIEA, DMF, 16.0 mM, 25.0 °C, 1.0 h, 2 steps): 34%

Compound: CCn1c(-c2cc(OCc3ccccc3)cnc2[C@H](C)OC)c2c3cc(ccc31)-c1cc(cc(O[Si](C(C)C)(C(C)C)C(C)C)c1)C[C@H](NC(=O)OC(C)(C)C)C(=O)N1CCC[C@H](N1)C(=O)OCC(C)(C)C2
- ring closure, isolated yield (from CCn1c(-c2cc(OCc3ccccc3)cnc2[C@H](C)OC)c(CC(C)(C)CO)c2cc(-c3cc(C[C@H](NC(=O)OC(C)(C)C)C(=O)N4CCC[C@@H](C(=O)O)N4)cc(O[Si](C(C)C)(C(C)C)C(C)C)c3)ccc21, ester bond, 18-membered ring, EDCI/HOBt/DIPEA, DCM, 9.8 mM, 25.0 °C, 16.0 h, 4 steps): 67%

Compound: COC(=O)[C@@H]1Cc2cc(I)cc(c2)OC[C@@H]2[C@H](CCN2C(=O)OC(C)(C)C)C(=O)N(C)[C@@H](C(C)C)C(=O)N1
- ring closure, isolated yield (from COC(=O)[C@H](Cc1cc(O)cc(I)c1)NC(=O)[C@H](C(C)C)N(C)C(=O)[C@H]1CCN(C(=O)OC(C)(C)C)[C@@H]1COS(=O)(=O)c1ccc(C)cc1, ether bond, 14-membered ring, K2CO3/KI, DMF, 12.2 mM, 80.0 °C, 2.0 h): 66%

Compound: COC(=O)[C@@H]1Cc2cc(Cl)cc(c2)CCN2[C@H](CC[C@H]2C(=O)N(C)C)C(=O)N(C)[C@@H](C(C)C)C(=O)N1
- ring closure, isolated yield (from COC(=O)[C@@H](N)Cc1cc(Br)cc(CCN2[C@@H](C(=O)N(C)[C@H](C(=O)O)C(C)C)CC[C@H]2C(=O)N(C)C)c1, amide bond, 14-membered ring, HATU/DIEA, DMF, 17.1 mM, 25.0 °C, 1.0 h, 2 steps): 44%

Compound: tert-butyl (3aS,6S,9S,15S,32aS)-6-isopropyl-21-(2-((S)-1-methoxyethyl)-5-(4-(oxetan-3-yl)piperazin-1-yl)pyridin-3-yl)-5,19,19-trimethyl-4,7,10,16-tetraoxo-22-(2,2,2-trifluoroethyl)-2,3,3a,4,5,6,7,8,9,10,13,14,15,16,18,19,20,22,32,32a-icosahydro-1H,12H-11,15-epimino-23,25-etheno-9,28-methano-26,30-(metheno)dipyrrolo[2,3-c:3′,4′-v][1,18]dioxa[6,9,12]triazacyclotriacontine-1-carboxylate
- ring closure, isolated yield (ether bond, 14-membered ring): 76%

Compound: CO[C@@H](C)c1ncc(C2CCN(C(=O)OCc3ccccc3)CC2)cc1-c1c2c3cc(ccc3n1CC(F)(F)F)-c1cc(cc(O[Si](C(C)C)(C(C)C)C(C)C)c1)C[C@H](NC(=O)OC(C)(C)C)C(=O)N1CCC[C@H](N1)C(=O)OCC(C)(C)C2
- ring closure, isolated yield (from CO[C@@H](C)c1ncc(C2CCN(C(=O)OCc3ccccc3)CC2)cc1-c1c(CC(C)(C)CO)c2cc(-c3cc(C[C@H](NC(=O)OC(C)(C)C)C(=O)N4CCC[C@@H](C(=O)O)N4)cc(O[Si](C(C)C)(C(C)C)C(C)C)c3)ccc2n1CC(F)(F)F, ester bond, 18-membered ring, EDCI/HOBt/DIEA, DCM, 8.4 mM, 25.0 °C, 16.0 h, 3 steps): 42%
